Results as given in ChEMBL document CHEMBL6109156, “Discovery of Dual PD-L1/HDAC3 Inhibitors for Tumor Immunotherapy” (J Med Chem, 2025).

How the values were obtained:
[1] = Toxicity in C57BL/6J mouse implanted with mouse B16-F10 cells assessed as liver damage at 20 to 40 mg/kg, ip administered once daily for 9 days by H and E staining based analysis; assay type: organism-based; conditions: in vivo, 216 h, dose 20-40 mg/kg, time 9 day
[2] = Toxicity in C57BL/6J mouse implanted with mouse B16-F10 cells assessed as spleen damage at 20 to 40 mg/kg, ip administered once daily for 9 days by H and E staining based analysis; assay type: organism-based; conditions: in vivo, 216 h, dose 20-40 mg/kg, time 9 day
[3] = target: Histone deacetylase 3 (Homo sapiens, UniProt O15379); assay: Inhibition of human recombinant HDAC3 using Ac-Leu-Gly-Lys (Ac)-AMC as substrate at 0.1 uM preincubated for 10 mins followed by substrate addition and measured after 45 mins by TECAN microtiter plate reader analysis relative to control; conditions: time 55.0 min
Histone deacetylase 3, sequence (O15379 whole entry): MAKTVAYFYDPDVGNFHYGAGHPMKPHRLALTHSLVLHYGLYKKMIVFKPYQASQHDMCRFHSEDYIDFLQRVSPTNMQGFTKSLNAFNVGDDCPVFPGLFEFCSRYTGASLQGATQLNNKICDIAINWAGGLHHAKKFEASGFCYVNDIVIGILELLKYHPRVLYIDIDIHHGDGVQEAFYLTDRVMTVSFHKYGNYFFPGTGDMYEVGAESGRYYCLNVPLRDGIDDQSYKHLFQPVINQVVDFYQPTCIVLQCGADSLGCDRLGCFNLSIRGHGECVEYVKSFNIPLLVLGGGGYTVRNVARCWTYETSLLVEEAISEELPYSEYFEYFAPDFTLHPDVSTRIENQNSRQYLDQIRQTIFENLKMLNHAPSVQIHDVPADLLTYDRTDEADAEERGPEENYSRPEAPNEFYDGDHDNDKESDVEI

[4] = target: Histone deacetylase 1 (Homo sapiens, UniProt Q13547); assay: Inhibition of human recombinant HDAC1 using Ac-Leu-Gly-Lys (Ac)-AMC as substrate preincubated for 10 mins followed by substrate addition and measured after 45 mins by TECAN microtiter plate reader analysis
Histone deacetylase 1, sequence (Q13547 whole entry): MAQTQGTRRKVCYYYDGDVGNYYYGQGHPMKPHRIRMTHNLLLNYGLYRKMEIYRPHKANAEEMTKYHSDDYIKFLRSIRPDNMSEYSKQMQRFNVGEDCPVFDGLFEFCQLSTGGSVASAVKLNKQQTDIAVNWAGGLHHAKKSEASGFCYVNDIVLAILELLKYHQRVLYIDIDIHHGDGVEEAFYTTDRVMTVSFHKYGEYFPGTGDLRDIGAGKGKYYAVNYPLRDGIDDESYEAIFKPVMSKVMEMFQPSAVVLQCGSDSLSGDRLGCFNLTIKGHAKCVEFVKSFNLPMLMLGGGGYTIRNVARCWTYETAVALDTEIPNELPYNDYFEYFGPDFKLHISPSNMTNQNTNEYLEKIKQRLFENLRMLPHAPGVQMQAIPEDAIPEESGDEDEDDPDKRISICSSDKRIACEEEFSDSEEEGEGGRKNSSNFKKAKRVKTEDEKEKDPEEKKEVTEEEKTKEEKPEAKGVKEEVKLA

[5] = target: T1, Histone deacetylase 8 (Homo sapiens, UniProt Q9BY41); assay: Inhibition of human recombinant HDAC8 using Ac-Leu-Gly-Lys (Tfa)-AMC as substrate preincubated for 10 mins followed by substrate addition and measured after 45 mins by TECAN microtiter plate reader analysis
T1 sequence (Q9BY41 whole entry): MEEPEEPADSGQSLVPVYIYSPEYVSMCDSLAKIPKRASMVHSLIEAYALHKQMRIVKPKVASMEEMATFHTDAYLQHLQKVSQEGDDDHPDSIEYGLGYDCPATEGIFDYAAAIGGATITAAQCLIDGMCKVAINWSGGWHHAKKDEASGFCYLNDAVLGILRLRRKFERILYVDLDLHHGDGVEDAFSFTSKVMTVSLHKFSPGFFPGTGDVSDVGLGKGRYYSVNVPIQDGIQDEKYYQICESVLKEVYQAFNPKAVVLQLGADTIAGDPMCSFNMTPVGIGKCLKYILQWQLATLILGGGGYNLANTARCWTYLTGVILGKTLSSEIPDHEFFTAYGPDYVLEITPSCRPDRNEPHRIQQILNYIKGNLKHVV

[6] = system: 4T1; assay: Antiproliferative activity against mouse 4T1 cells assessed as cell growth inhibition incubated for 48 hrs by MTT assay; assay type: functional, cell-based; conditions: 4T1, 48 h
[7] = system: MDA-MB-231; assay: Antiproliferative activity against human MDA-MB-231 cells assessed as cell growth inhibition incubated for 48 hrs by MTT assay; assay type: functional, cell-based; conditions: MDA-MB-231, 48 h
[8] = target: T2, Histone deacetylase 3 (Mus musculus) (UniProt O88895); assay: Inhibition of HDAC3 in mouse B16-F10 cells assessed as upregulation of Ac-H3 level incubated for 24 hrs by Western blotting analysis; assay type: cell-based; conditions: dose 1-8 µM
T2 sequence (whole entry): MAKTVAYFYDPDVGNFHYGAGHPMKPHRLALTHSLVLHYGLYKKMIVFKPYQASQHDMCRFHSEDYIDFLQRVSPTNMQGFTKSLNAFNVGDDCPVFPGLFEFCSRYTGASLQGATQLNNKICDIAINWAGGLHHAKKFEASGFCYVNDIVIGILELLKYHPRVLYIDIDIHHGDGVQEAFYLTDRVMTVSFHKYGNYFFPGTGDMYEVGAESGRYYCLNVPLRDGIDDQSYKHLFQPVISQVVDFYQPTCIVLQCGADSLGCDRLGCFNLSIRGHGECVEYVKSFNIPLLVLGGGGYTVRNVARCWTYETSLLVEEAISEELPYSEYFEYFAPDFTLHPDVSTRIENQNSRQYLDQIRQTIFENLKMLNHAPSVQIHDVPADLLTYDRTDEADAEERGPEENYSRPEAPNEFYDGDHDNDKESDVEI

[9] = system: B16-F10; assay: Induction of apoptosis in mouse B16-F10 cells assessed as viable cells at 8 uM incubated for 48 hrs by Annexin V-FITC/PI staining based flow cytometry analysis (reference value: 92.3%); assay type: functional; conditions: read-out: Activity
[10] = system: B16-F10; assay: Induction of apoptosis in mouse B16-F10 cells assessed as necrotic cells at 1 uM incubated for 48 hrs by Annexin V-FITC/PI staining based flow cytometry analysis (reference value: 2.24%); assay type: functional
[11] = system: B16-F10; assay: Induction of cell cycle arrest in mouse B16-F10 cells assessed as accumulation of cells at G0/G1 phase at 1 uM incubated for 48 hrs by PI staining based flow cytometry analysis (reference value: 70.09%); assay type: functional
[12] = system: B16-F10; assay: Induction of cell cycle arrest in mouse B16-F10 cells assessed as accumulation of cells at G2/M phase at 1 uM incubated for 48 hrs by PI staining based flow cytometry analysis (reference value: 5.87%); assay type: functional
[13] = system: B16-F10; assay: Induction of cell cycle arrest in mouse B16-F10 cells assessed as accumulation of cells at S phase at 2 uM incubated for 48 hrs by PI staining based flow cytometry analysis (reference value: 24.04%); assay type: functional
[14] = system: B16-F10; assay: Induction of cell cycle arrest in mouse B16-F10 cells assessed as accumulation of cells at G0/G1 phase at 4 uM incubated for 48 hrs by PI staining based flow cytometry analysis (reference value: 70.09%); assay type: functional
[15] = system: B16-F10; assay: Induction of cell cycle arrest in mouse B16-F10 cells assessed as accumulation of cells at G2/M phase at 4 uM incubated for 48 hrs by PI staining based flow cytometry analysis (reference value: 5.87%); assay type: functional
[16] = system: B16-F10; assay: Induction of cell cycle arrest in mouse B16-F10 cells assessed as accumulation of cells at G2/M phase at 8 uM incubated for 48 hrs by PI staining based flow cytometry analysis (reference value: 5.87%); assay type: functional
[17] = system: B16-F10; assay: Induction of cell cycle arrest in mouse B16-F10 cells assessed as accumulation of cells at S phase at 8 uM incubated for 48 hrs by PI staining based flow cytometry analysis (reference value: 24.04%); assay type: functional
[18] = system: B16-F10; assay: Antitumor activity against mouse B16-F10 cells implanted in C57BL/6J mouse assessed as tumor growth inhibition at 20 mg/kg, ip administered once daily for 9 days; assay type: functional; conditions: B16-F10, 216 h, time 9 day, read-out: TGI
[19] = Toxicity in C57BL/6J mouse implanted with mouse B16-F10 cells assessed as kidney damage at 20 to 40 mg/kg, ip administered once daily for 9 days by H and E staining based analysis; assay type: organism-based; conditions: in vivo, 216 h, dose 20-40 mg/kg, time 9 day
[20] = system: B16-F10; assay: Immunomodulatory activity in mouse B16-F10 cells implanted in C57BL/6J mouse assessed as percentage of CD3 positive CD8 positive cells in tumor at 20 mg/kg, ip administered once daily for 9 days by flow cytometric analysis (reference value: 0.44 %); assay type: functional; conditions: time 9 day

CCCNNC(=O)CCCNCc1ccc(-c2cccc(-c3ccccc3)c2C)nc1OC
Activity [1]: Non-toxic | Activity [2]: Non-toxic | inhibition [3]: 42% | IC50 [4]: 2.23 µM | IC50 [5]: > 10 µM | IC50 [6]: 4.66 µM | IC50 [7]: 3.01 µM | inhibition [8]: Dose-dependent-effect | viability at 8 µM [9]: 53.6% | Activity [10]: 2.63% | Activity [11]: 73.46% | Activity [12]: 4.75% | Activity [13]: 7.79% | Activity [14]: 91.66% | Activity [15]: 3.65% | Activity [16]: 2.69% | Activity [17]: 0.5% | inhibition in vivo at 20 mg/kg [18]: 48.9% | Activity [19]: Non-toxic | Activity [20]: 4.31%
